Experimental data: US20100056948A1, “Stimulation of Satiety Hormone Release” (priority 2008, published 2010)

What was measured:
[1] = tested on: rat distal ileum (L-cells); experiment: GLP-1 release from isolated rat distal ileum segments into the bathing medium (active GLP-1 ELISA), with or without electrical field stimulation; type: cell-based; settings: for GLP-1 release, LA alone (mean ± SEM): LA 3 mg/mL 45 min, no E-stim
Experimental: (§1) Female Sprague-Dawley rats, 8-12 weeks weighing 250-300 g were euthanized by CO2 and at least 17 cm of distal ileum was immediately dissected starting at the ileocecal junction. Intraluminal contents were flushed with warm modified Krebs Ringers bicarbonate (KRB) buffer and intestines placed into 50 mL tubes containing oxygenated, cold KRB buffer. Intact segments (1.5 cm) of rat distal ileum were oriented longitudinally, with the oral end fixed in the organ chamber between bipolar stimulating electrodes and the aboral end attached to a solid-state force transducer and submerged in a 10 ml-chamber containing KRB at 37° C. and constantly aerated with 95% O2/5% CO2 (FIG. 1). […] The entire assembly was placed into 37° C. KRB buffer in jacketed 10 mL myobath chambers. The length of each segment was adjusted to an initial resting tension of 1 g and maintained at 37° C. in a KRB buffer or KRB containing linoleic acid (LA, 3 mg/mL) and a dipeptidyl peptidase-4 inhibitor (to prevent proteolysis of GLP-1). Contractile activity was digitized and data acquired for off line analysis using PowerLab hardware and Chart software (ADInstruments, Colorado Springs, Colo.). In separate experiments, segments were incubated in KRB or KRB+LA in the presence or absence of electrical field stimulation continuously for 45 min. Samples of the bathing solutions taken at 45 min and mucosal epithelial scrapings were stored frozen (minus 80° C.).
Active GLP-1 concentration in thawed aliquots was measured by fluorescence on a plate reader using an ELISA (Linco Research, St. Charles, Mo.) with a detection range of 2-100 pM. This method measures both biologically active forms of GLP-1, that is GLP-1(7-36) and (GLP-1(7-36)) amide, that are currently known to be released by the intestinal mucosa. Measurements of GLP-1 were normalized to concentration in 10 mL volume and reported as pM. The mean and SEM GLP-1 release was calculated for each treatment. For each electrical stimulation condition (+/−LA) there were 2-6 rats with 2-4 segments of tissue per rat per condition.
Statistical analysis was performed that included all conditions (with condition defined by the combination of frequency, voltage and duration of the electrical stimulation) and included a term for condition, treatment (LA alone or LA plus electrical stimulation) as a repeated factor, and the interaction between the two. Treatment is a within-subject effect, allowing each subject's LA alone response to serve as the control for that subject's response with electrical stimulation from the same study day. GLP-1 release was analyzed by repeated measures analyses of variance (ANOVA) on all eleven conditions with LA alone or LA plus electrical stimulation as a repeated factor. The mean and SEM reported in the tables below are based on 2-6 rats per condition with data from two replicates of each electrical stimulation condition averaged per rat. The P values are reported based on repeated measures analyses of variance (ANOVA) for each analysis and for the pairwise comparisons. The data were log-transformed prior to analyses to better satisfy the underlying statistical modeling assumptions of equal variability and sampling from populations with normal distributions.

[2] = tested on: segments of duodenum, jejunum ileum, colon, esophagus, stomach; experiment: GLP-1 release from segments of the entire GI tract incubated in linoleic acid; type: cell-based, rat; settings: LA 3 mg/mL, 45 minutes (FIG. 2)
isolated ileum = experiment: Muscle tone of isolated ileum (force transducer); type: cell-based, rat; settings: for Change in muscle tone of isolated ileum after 40 min compared to KRB buffer: P<0.05 by ANOVA
Experimental: as §1
Muscle tone and contractile amplitude (calculated as the average cyclic minimum and maximum, respectively) were determined for 5 min periods, pre- (˜5 min before) and post-treatment (40 min after start). The tone and amplitude at −5 and +40 minutes for each condition was compared to that condition's baseline by one-way ANOVA.

CCCCC/C=C\C/C=C\CCCCCCCC(=O)O [LA, linoleic acid]
GLP-1 release, LA alone (mean ± SEM) ([1]; paired control for 0.15 Hz 0.7 V 300 ms): 17.9 ± 4.1 pM | GLP-1 release, LA alone (mean ± SEM) ([1]; paired control for 0.15 Hz 2 V 5 ms): 12.1 ± 4.0 pM | GLP-1 release, LA alone (mean ± SEM) ([1]; paired control for 0.15 Hz 5 V 5 ms): 17.6 ± 5.9 pM | GLP-1 release, LA alone (mean ± SEM) ([1]; paired control for 0.15 Hz 10 V 5 ms): 19.5 ± 9.0 pM | GLP-1 release, LA alone (mean ± SEM) ([1]; paired control for 0.15 Hz 20 V 5 ms): 12.5 ± 1.7 pM | GLP-1 release, LA alone (mean ± SEM) ([1]; paired control for 0.4 Hz 14 V 5 ms): 11.0 ± 2.8 pM | GLP-1 release, LA alone (mean ± SEM) ([1]; paired control for 0.4 Hz 14 V 300 ms): 12.7 ± 2.4 pM | GLP-1 release, LA alone (mean ± SEM) ([1]; paired control for 4 Hz 14 V 5 ms): 8.6 ± 1.8 pM | GLP-1 release, LA alone (mean ± SEM) ([1]; paired control for 20 Hz 14 V 5 ms): 14.4 ± 5.9 pM | GLP-1 release, LA alone (mean ± SEM) ([1]; paired control for 40 Hz 14 V 5 ms): 10.2 ± 2.1 pM | GLP-1 release, LA alone (mean ± SEM) ([1]; paired control for 80 Hz 14 V 5 ms): 20.6 ± 3.4 pM | GLP-1 release, LA + E-stim (mean ± SEM) ([1]; LA 3 mg/mL 45 min plus electrical stimulation 0.15 Hz 0.7 V 300 ms, p 0.257 vs LA alone): 22.1 ± 4.2 pM | GLP-1 release, LA + E-stim (mean ± SEM) ([1]; LA 3 mg/mL 45 min plus electrical stimulation 0.15 Hz 2 V 5 ms, p 0.948 vs LA alone): 11.1 ± 1.0 pM | GLP-1 release, LA + E-stim (mean ± SEM) ([1]; LA 3 mg/mL 45 min plus electrical stimulation 0.15 Hz 5 V 5 ms, p 0.344 vs LA alone): 22.6 ± 9.4 pM | GLP-1 release, LA + E-stim (mean ± SEM) ([1]; LA 3 mg/mL 45 min plus electrical stimulation 0.15 Hz 10 V 5 ms, p 0.311 vs LA alone): 29.4 ± 6.6 pM | GLP-1 release, LA + E-stim (mean ± SEM) ([1]; LA 3 mg/mL 45 min plus electrical stimulation 0.15 Hz 20 V 5 ms, p 0.212 vs LA alone): 16.5 ± 3.7 pM | GLP-1 release, LA + E-stim (mean ± SEM) ([1]; LA 3 mg/mL 45 min plus electrical stimulation 0.4 Hz 14 V 5 ms, p 0.761 vs LA alone): 10.4 ± 1.8 pM | GLP-1 release, LA + E-stim (mean ± SEM) ([1]; LA 3 mg/mL 45 min plus electrical stimulation 0.4 Hz 14 V 300 ms, p 0.056 vs LA alone): 31.3 ± 5.9 pM | GLP-1 release, LA + E-stim (mean ± SEM) ([1]; LA 3 mg/mL 45 min plus electrical stimulation 4 Hz 14 V 5 ms, p 0.838 vs LA alone): 9.1 ± 1.4 pM | GLP-1 release, LA + E-stim (mean ± SEM) ([1]; LA 3 mg/mL 45 min plus electrical stimulation 20 Hz 14 V 5 ms, p 0.152 vs LA alone): 32.6 ± 12.2 pM | GLP-1 release, LA + E-stim (mean ± SEM) ([1]; LA 3 mg/mL 45 min plus electrical stimulation 40 Hz 14 V 5 ms, p 0.016 vs LA alone): 38.1 ± 11.1 pM | GLP-1 release, LA + E-stim (mean ± SEM) ([1]; LA 3 mg/mL 45 min plus electrical stimulation 80 Hz 14 V 5 ms, p 0.391, includes one result designated 100 pM (upper level of detection, actual 178 pM)): 33.7 ± 12.4 pM | LA-evoked increase of GLP-1 in the presence of TTX ([1]; TTX 0.5 μM concurrently with linoleic acid for 45 min (FIG. 7)): persisted | GLP-1 released after 45 mins incubation in LA ([1]; compiled data from 51 distal ileum segments, LA 3 mg/mL, mean ± SEM, KRB buffer alone 3.6 pM): 21.9 ± 2.6 pM | Enhancement of GLP-1 released during incubation with nutrient stimulus by E-stim compared to LA alone ([1]; four electrical stimulation conditions with total charge 1400, 1680, 2800 and 5600 μC): 150-300% | Increase of GLP-1 release by electrical stimulation together with LA over that evoked by LA alone ([1]; in the presence of TTX 0.5 μM, E-stim 14V 0.4 Hz 300 ms, 45 min): 239±64% | LA concentration giving maximal GLP-1 response ([1]; tissue incubated in 1, 3 and 10 mg/mL LA, data not shown): 3 mg/mL | GLP-1 concentration over time ([1]; two segments of ileum incubated in 3 mg/ml LA (FIG. 4)): increased over time | GLP-1 concentration in the bathing medium ([2]; segments of duodenum, jejunum ileum and colon): increased | GLP-1 concentration in the bathing medium ([2]; segments of esophagus or stomach): not | Change in muscle tone of isolated ileum after 40 min compared to KRB buffer (isolated ileum; LA combined with E-stim 14V 40 Hz 5 ms): significant reduction | Change in muscle tone of isolated ileum after 40 min compared to KRB buffer (isolated ileum; LA combined with E-stim 14 V 80 Hz 5 ms): significant reduction | Muscle tone of isolated ileum compared to KRB buffer alone (isolated ileum; LA with E-stim 14V 0.4 Hz 300 ms): not different | Muscle tone of isolated ileum compared to KRB buffer alone (isolated ileum; LA with E-stim 14V 20 Hz 5 ms): not different | Change in muscle tone of isolated ileum after 40 min (isolated ileum; incubation in LA alone (FIG. 9)): tended to decrease

NC1=N[C@H](O)[C@H]2[C@H]3O[C@]4(O)O[C@@H]([C@@H](O)[C@@]2(N1)[C@@H]4O)[C@]3(O)CO [TTX, tetrodotoxin]
Effect of TTX alone on GLP-1 release [1]: no effect | Effect of tetrodotoxin on the two-fold increase in GLP-1 evoked by direct electrical stimulation of ileal tissue [1]: did not prevent
